Laboratory results: ChEMBL document CHEMBL1615345, “Evaluation of a published in silico model and construction of a novel Bayesian model for predicting phospholipidosis inducing potential” (J Chem Inf Model, 2007)

System: Phospholipidosis
Assay: Phospholipidosis-positive literature compound observed in dog
Format: ADME, Canis lupus familiaris
Details: not given

Row | Molecule | Phospholipidosis
1 | CC[C@H]1OC(=O)[C@H](C)[C@@H](O[C@H]2C[C@@](C)(OC)[C@@H](O)[C@H](C)O2)[C@H](C)[C@@H](O[C@@H]2O[C@H](C)C[C@H](N(C)C)[C@H]2O)[C@](C)(O)C[C@@H](C)C(=O)[C@H](C)[C@@H](O)[C@]1(C)O [ERYTHROMYCIN] | Active
2 | CN(C)C/C=C(/c1ccc(Br)cc1)c1cccnc1 [ZIMELDINE] | Active
3 | CCC[C@@H]1C[C@@H](C(=O)N[C@@H]([C@H]2O[C@H](SC)[C@H](O)[C@@H](O)[C@H]2O)[C@H](C)Cl)N(C)C1 [CLINDAMYCIN] | Active
4 | CN(C)CCCN1c2ccccc2Sc2ccc(Cl)cc21 [CHLORPROMAZINE] | Active
5 | GENTAMICIN | Active

System: Phospholipidosis
Assay: Phospholipidosis-positive literature compound observed in human
Format: ADME
Details: not given

Row | Molecule | Phospholipidosis
6 | C1CCC(C(CC2CCCCN2)C2CCCCC2)CC1 (centres undefined) [PERHEXILINE] | Active
7 | CCCCc1oc2ccccc2c1C(=O)c1cc(I)c(OCCN(CC)CC)c(I)c1 [AMIODARONE] | Active
8 | N=C(N)c1ccc(/C=C/c2ccc(C(=N)N)cc2)cc1 [STILBAMIDINE] | Active
9 | CCN(CC)CCOc1ccc2c(c1)C(=O)c1cc(OCCN(CC)CC)ccc1-2 [TILORONE] | Active
10 | NC[C@H]1O[C@H](O[C@H]2[C@H](O)[C@@H](O[C@H]3O[C@H](CO)[C@@H](O)[C@H](N)[C@H]3O)[C@H](N)C[C@@H]2N)[C@H](N)C[C@@H]1O [TOBRAMYCIN] | Active
11 | CCN(CC)Cc1cc(Nc2ccnc3cc(Cl)ccc23)ccc1O.Cl | Active
12 | GENTAMICIN | Active

System: Phospholipidosis
Details: rat

Row | Molecule | Phospholipidosis
13 | CN(C)CCCC1c2ccccc2Nc2ccc(Cl)cc21 (centres undefined) [CLOMACRAN] | Active
14 | CC[C@H]1CN2CCc3cc(OC)c(OC)cc3[C@@H]2C[C@@H]1C[C@H]1NCCc2cc(OC)c(OC)cc21 [EMETINE] | Active
15 | NCC[C@H](O)C(=O)N[C@@H]1C[C@H](N)[C@@H](O[C@H]2O[C@H](CN)[C@@H](O)[C@H](O)[C@H]2O)[C@H](O)[C@H]1O[C@H]1O[C@H](CO)[C@@H](O)[C@H](N)[C@H]1O [AMIKACIN] | Active
16 | NC[C@@H]1CC[C@@H](N)[C@@H](O[C@H]2[C@H](O)[C@@H](O[C@H]3O[C@H](CO)[C@@H](O)[C@H](N)[C@H]3O)[C@H](N)C[C@@H]2N)O1 [DIBEKACIN] | Active
17 | OC(CN1CCCCC1)c1ccc(C=C2c3ccccc3-c3ccccc32)cc1 (centres undefined) | Active
18 | CCN[C@@H]1C[C@H](N)[C@@H](O[C@H]2OC(CN)=CC[C@H]2N)[C@H](O)[C@H]1O[C@H]1OC[C@](C)(O)[C@H](NC)[C@H]1O [NETILMICIN] | Active
19 | CC[C@H]1OC(=O)[C@H](C)[C@@H](O[C@H]2C[C@@](C)(OC)[C@@H](O)[C@H](C)O2)[C@H](C)[C@@H](O[C@@H]2O[C@H](C)C[C@H](N(C)C)[C@H]2O)[C@](C)(O)C[C@@H](C)C(=O)[C@H](C)[C@@H](O)[C@]1(C)O [ERYTHROMYCIN] | Active
20 | CN(C)CCCN1c2ccccc2CCc2ccc(Cl)cc21 [CLOMIPRAMINE] | Active
21 | Cc1ccc(C(=O)Nc2ccc(S(=O)(=O)O)c3cc(S(=O)(=O)O)cc(S(=O)(=O)O)c23)cc1NC(=O)c1cccc(NC(=O)Nc2cccc(C(=O)Nc3cc(C(=O)Nc4ccc(S(=O)(=O)O)c5cc(S(=O)(=O)O)cc(S(=O)(=O)O)c45)ccc3C)c2)c1 [SURAMIN] | Active
22 | Clc1ccccc1CNC[C@H]1CC[C@H](CNCc2ccccc2Cl)CC1 | Active
23 | Clc1ccc(C(c2ccccc2)N2CCNCC2)cc1 (centres undefined) [NORCHLORCYCLIZINE] | Active
24 | C1CCC(C(CC2CCCCN2)C2CCCCC2)CC1 (centres undefined) [PERHEXILINE] | Active
25 | O=C(NC1CCN(CCc2c[nH]c3ccccc23)CC1)c1ccccc1 [INDORAMIN] | Active
26 | CN1CCN(C(c2ccccc2)c2ccc(Cl)cc2)CC1 (centres undefined) [CHLORCYCLIZINE] | Active
27 | CCN(CC)CCCC(C)Nc1c2ccc(Cl)cc2nc2ccc(OC)cc12 (centres undefined) [QUINACRINE] | Active
28 | CN1CCN(Cc2nc3cccc4c3c([n+]2[O-])-c2ccccc2-4)CC1 | Active
29 | CC/C(=C(\c1ccccc1)c1ccc(OCCN(C)C)cc1)c1ccccc1 [TAMOXIFEN] | Active
30 | CCOC(=O)C1N=C(c2ccccc2F)c2cc(Cl)ccc2NC1=O (centres undefined) [ETHYL LOFLAZEPATE] | Active
31 | CCCCc1oc2ccccc2c1C(=O)c1cc(I)c(OCCN(CC)CC)c(I)c1 [AMIODARONE] | Active
32 | CN1CCN(C(c2ccccc2)c2ccccc2)CC1 [CYCLIZINE] | Active
33 | CN(C)C/C=C(/c1ccc(Br)cc1)c1cccnc1 [ZIMELDINE] | Active
34 | CN(C)CCCn1c2c(c3ccccc31)CCCCCC2 [IPRINDOLE] | Active

Row | Molecule | Phospholipidosis
35 | NC[C@H]1Cc2ccc(F)cc2[C@@H](c2ccccc2)O1 | Active
36 | CN(C)CCC=C1c2ccccc2CCc2c(Cl)cccc21 | Active
37 | CNCCCC12CCC(c3ccccc31)c1ccccc12 [MAPROTILINE] | Active
38 | CCN(CC)CCn1nc2c3c(c(C)ccc31)Sc1cc(Cl)ccc1-2 | Active
39 | FC(F)(F)c1ccc(-c2ccc(OCCN3CCCC3)cc2)cc1 [BOXIDINE] | Active
40 | CCN(CC)CCOc1ccc2c(c1)C(=O)c1cc(OCCN(CC)CC)ccc1-2 [TILORONE] | Active
41 | CN1CCN(C2=Nc3cc(Cl)ccc3Nc3ccccc32)CC1 [CLOZAPINE] | Active
42 | Cc1cccc(CN2CCN(C(c3ccccc3)c3ccc(Cl)cc3)CC2)c1 (centres undefined) [MECLIZINE] | Active
43 | CCC[C@@H]1C[C@@H](C(=O)N[C@@H]([C@H]2O[C@H](SC)[C@H](O)[C@@H](O)[C@H]2O)[C@H](C)Cl)N(C)C1 [CLINDAMYCIN] | Active
44 | OCCOCCN1CCN(C(c2ccccc2)c2ccc(Cl)cc2)CC1 (centres undefined) [HYDROXYZINE] | Active
45 | NC[C@H]1O[C@H](O[C@H]2[C@H](O)[C@@H](O[C@H]3O[C@H](CO)[C@@H](O)[C@H](N)[C@H]3O)[C@H](N)C[C@@H]2N)[C@H](N)C[C@@H]1O [TOBRAMYCIN] | Active
46 | CN1CCN(C2=Nc3cc(Cl)ccc3N(C)n3cccc32)CC1 | Active
47 | CN1CCCN(C(c2ccccc2)c2ccc(Cl)cc2)CC1 (centres undefined) [HOMOCHLORCYCLIZINE] | Active
48 | CN(C)CCCC1(c2ccc(F)cc2)OCc2cc(C#N)ccc21 (centres undefined) [CITALOPRAM] | Active
49 | CN(C)CCC=C1c2ccccc2CCc2ccccc21 [AMITRIPTYLINE] | Active
50 | CN(C)CCCN1c2ccccc2Sc2ccc(Cl)cc21 [CHLORPROMAZINE] | Active
51 | CN(C)CCCN1c2ccccc2CCc2ccccc21 [IMIPRAMINE] | Active
52 | CN(C)CCC=C1c2ccccc2C=Cc2c(Cl)cccc21 | Active
53 | CCOc1ccc(NC(C)=O)cc1 [PHENACETIN] | Active
54 | CCCC[C@@H]1CC(=O)[C@]2(O)O[C@@H]3[C@@H](NC)[C@@H](O)[C@@H](NC)[C@H](O)[C@H]3O[C@@H]2O1.O=S(=O)(O)O | Active
55 | NCCc1cc(O)c(O)cc1O [OXIDOPAMINE] | Active
56 | GENTAMICIN | Active

System: Phospholipidosis
Assay: Phospholipidosis-positive literature compound observed in mouse
Format: ADME, organism-based
Details: in vivo

Row | Molecule | Phospholipidosis
57 | Clc1ccccc1CNC[C@H]1CC[C@H](CNCc2ccccc2Cl)CC1 | Active
58 | C1CCC(C(CC2CCCCN2)C2CCCCC2)CC1 (centres undefined) [PERHEXILINE] | Active
59 | C[n+]1ccc(-c2cc[n+](C)cc2)cc1 | Active
60 | CC(=O)N1CCN(c2ccc(OCC3COC(Cn4ccnc4)(c4ccc(Cl)cc4Cl)O3)cc2)CC1 (centres undefined) [KETOCONAZOLE] | Active
61 | CN(C)CCCN(C)[C@H]1CC[C@H]2[C@@H]3CC=C4C[C@@H](O)CC[C@]4(C)[C@H]3CC[C@]12C [AZACOSTEROL] | Active

System: Phospholipidosis
Details: not given

Row | Molecule | Phospholipidosis
62 | CN(Cc1cnc2nc(N)nc(N)c2n1)c1ccc(C(=O)N[C@@H](CCC(=O)O)C(=O)O)cc1 [METHOTREXATE] | Not Active
63 | NN [HYDRAZINE] | Not Active
64 | NC(N)=Nc1nc(CSCCC(N)=NS(N)(=O)=O)cs1 [FAMOTIDINE] | Not Active
65 | CC(=N)S [THIOACETAMIDE] | Not Active
66 | CN(C)CCN(Cc1cccs1)c1ccccn1 | Not Active
67 | Cc1ccc2cc3c(ccc4ccccc43)c3c2c1CC3 [3-METHYLCHOLANTHRENE] | Not Active
68 | C[C@H]1c2cccc(O)c2C(=O)C2=C(O)[C@]3(O)C(=O)C(C(N)=O)=C(O)[C@@H](N(C)C)[C@@H]3[C@@H](O)[C@@H]21.O [DOXYCYCLINE] | Not Active
69 | O=C(O)Cc1ccccc1Nc1c(Cl)cccc1Cl [DICLOFENAC] | Not Active
70 | CC(c1cc2ccccc2s1)N(O)C(N)=O (centres undefined) [ZILEUTON] | Not Active
71 | CC(=O)O[C@]1(C(C)=O)CC[C@H]2[C@@H]3C=C(Cl)C4=CC(=O)[C@@H]5C[C@@H]5[C@]4(C)[C@H]3CC[C@@]21C [CYPROTERONE ACETATE] | Not Active
72 | NC(=O)OCC(COC(N)=O)c1ccccc1 [FELBAMATE] | Not Active
73 | CC(C)C(=O)Nc1ccc([N+](=O)[O-])c(C(F)(F)F)c1 [FLUTAMIDE] | Not Active
74 | CCN(CC)CCOC(=O)c1ccc(N)cc1 [PROCAINE] | Not Active
75 | CC(C)(O/N=C(\C(=O)N[C@@H]1C(=O)N2C(C(=O)[O-])=C(C[n+]3ccccc3)CS[C@H]12)c1csc(N)n1)C(=O)O [CEFTAZIDIME] | Not Active
76 | CCC(=O)C(CC(C)N(C)C)(c1ccccc1)c1ccccc1 (centres undefined) [METHADONE] | Not Active
77 | CC(=O)N(O)CCCCCNC(=O)CCC(=O)N(O)CCCCCNC(=O)CCC(=O)N(O)CCCCCN [DEFEROXAMINE] | Not Active
78 | NC(=O)NO [HYDROXYUREA] | Not Active
79 | Cc1ccc(C)c(OCCCC(C)(C)C(=O)O)c1 [GEMFIBROZIL] | Not Active
80 | CC(C)OC(=O)C(C)(C)Oc1ccc(C(=O)c2ccc(Cl)cc2)cc1 [FENOFIBRATE] | Not Active
81 | N=C(N)NCCCCCCCCCCNC(=N)N [SYNTHALIN] | Not Active
82 | CN(C)[C@@H]1C(O)=C(C(=O)NCN2CCCC2)C(=O)[C@@]2(O)C(O)=C3C(=O)c4c(O)cccc4[C@@](C)(O)[C@H]3C[C@@H]12 [ROLITETRACYCLINE] | Not Active
83 | Cc1cccc(Nc2cc(Cl)nc(SCC(=O)O)n2)c1C [PIRINIXIC ACID] | Not Active
84 | COc1cc([C@@H]2c3cc4c(cc3[C@@H](O[C@@H]3O[C@@H]5CO[C@@H](C)O[C@H]5[C@H](O)[C@H]3O)[C@H]3COC(=O)[C@H]23)OCO4)cc(OC)c1O [ETOPOSIDE] | Not Active
85 | COc1cc2c(c(OC)c1OC)-c1ccc(OC)c(=O)cc1[C@@H](NC(C)=O)CC2 [COLCHICINE] | Not Active
86 | [N-]=[N+]=CC(=O)OC[C@H](N)C(=O)O [AZASERINE] | Not Active
87 | C[C@](N)(Cc1ccc(O)c(O)c1)C(=O)O [METHYLDOPA] | Not Active
88 | Nc1c2c(nc3ccccc13)CCCC2 [TACRINE] | Not Active

System: Phospholipidosis
Assay: Phospholipidosis-positive literature compound observed in rabbit
Format: ADME, Oryctolagus cuniculus
Details: not given

Row | Molecule | Phospholipidosis
89 | Clc1ccccc1CNC[C@H]1CC[C@H](CNCc2ccccc2Cl)CC1 | Active
